The text below walks through data of the supplement of paper PMC10307832.

One assay concerns NCI-H460. The experiment in a line: relative viability (nuclei count vs DMSO), 5 days (fraction); higher = more cells survive. To be noted: first compound 0.08 µM. The essentials:
(§1)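 Dosing by pin tool came one day after lung cancer cell lines were seeded in 1536-well plates, using either one drug or a fixed anchor-drug dose plus five library-drug doses (not always all listed) in √10 steps. After 5 days, nuclei were counted on 4× images. Relative viability is treated-well nuclei count divided by vehicle-well nuclei count, and values are medians of duplicate plates.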
The compound `CCCCCCCCCCCC1=C(O)C(=O)C=C(O)C1=O` [Embelin] + NC(=O)Nc1cc(-c2cccc(F)c2)sc1C(=O)N[C@H]1CCCNC1 [AZD7762] (partner 0.2 µM) gave a relative viability of 0.658.

As to `CCCCCCCCCCCC1=C(O)C(=O)C=C(O)C1=O` [Embelin] + Cc1nc(NC(=O)N2CCC[C@H]2C(N)=O)sc1-c1ccnc(C(C)(C)C(F)(F)F)c1 [Alpelisib] (partner 2 µM), the relative viability is 0.448.

Staying with this assay, now noted: first compound 0.8 µM.
`CCCCCCCCCCCC1=C(O)C(=O)C=C(O)C1=O` [Embelin] + COc1cc2c(Oc3ccc(NC(=O)C4(C(=O)Nc5ccc(F)cc5)CC4)cc3F)ccnc2cc1OCCCN1CCOCC1 [Foretinib] (partner 0.25 µM) gave a relative viability of 1.03.

`CCCCCCCCCCCC1=C(O)C(=O)C=C(O)C1=O` [Embelin] + CC(=O)Nc1cccc(-n2c(=O)n(C3CC3)c(=O)c3c(Nc4ccc(I)cc4F)n(C)c(=O)c(C)c32)c1 [Trametinib] (partner 0.02 µM) returned a relative viability of 0.202.

`CCCCCCCCCCCC1=C(O)C(=O)C=C(O)C1=O` [Embelin] + CS(=O)(=O)N1CCN(Cc2cc3nc(-c4cccc5[nH]ncc45)nc(N4CCOCC4)c3s2)CC1 [Pictilisib] (partner 1 µM) yielded a relative viability of 0.409.

`CCCCCCCCCCCC1=C(O)C(=O)C=C(O)C1=O` [Embelin] + NC(=O)Nc1cc(-c2cccc(F)c2)sc1C(=O)N[C@H]1CCCNC1 [AZD7762] (partner 0.2 µM) had a relative viability of 0.717.

In turn, `CCCCCCCCCCCC1=C(O)C(=O)C=C(O)C1=O` [Embelin] + Cc1nc(NC(=O)N2CCC[C@H]2C(N)=O)sc1-c1ccnc(C(C)(C)C(F)(F)F)c1 [Alpelisib] (partner 2 µM) came in with a relative viability of 0.574.

The same assay, now with this note: first compound 2.53 µM.
With `CCCCCCCCCCCC1=C(O)C(=O)C=C(O)C1=O` [Embelin] + COc1cc2c(Oc3ccc(NC(=O)C4(C(=O)Nc5ccc(F)cc5)CC4)cc3F)ccnc2cc1OCCCN1CCOCC1 [Foretinib] (partner 0.25 µM), the relative viability stood at 1.11.

Regarding `CCCCCCCCCCCC1=C(O)C(=O)C=C(O)C1=O` [Embelin] + CC(=O)Nc1cccc(-n2c(=O)n(C3CC3)c(=O)c3c(Nc4ccc(I)cc4F)n(C)c(=O)c(C)c32)c1 [Trametinib] (partner 0.02 µM), the relative viability stood at 0.151.

`CCCCCCCCCCCC1=C(O)C(=O)C=C(O)C1=O` [Embelin] + CS(=O)(=O)N1CCN(Cc2cc3nc(-c4cccc5[nH]ncc45)nc(N4CCOCC4)c3s2)CC1 [Pictilisib] (partner 1 µM) displayed a relative viability of 0.476.

`CCCCCCCCCCCC1=C(O)C(=O)C=C(O)C1=O` [Embelin] + NC(=O)Nc1cc(-c2cccc(F)c2)sc1C(=O)N[C@H]1CCCNC1 [AZD7762] (partner 0.2 µM) came in with a relative viability of 0.585.

`CCCCCCCCCCCC1=C(O)C(=O)C=C(O)C1=O` [Embelin] + Cc1nc(NC(=O)N2CCC[C@H]2C(N)=O)sc1-c1ccnc(C(C)(C)C(F)(F)F)c1 [Alpelisib] (partner 2 µM) displayed a relative viability of 0.698.

The same assay, now with this note: first compound 8 µM.
`CCCCCCCCCCCC1=C(O)C(=O)C=C(O)C1=O` [Embelin] + COc1cc2c(Oc3ccc(NC(=O)C4(C(=O)Nc5ccc(F)cc5)CC4)cc3F)ccnc2cc1OCCCN1CCOCC1 [Foretinib] (partner 0.25 µM) yielded a relative viability of 1.08.

Consider `CCCCCCCCCCCC1=C(O)C(=O)C=C(O)C1=O` [Embelin] + CC(=O)Nc1cccc(-n2c(=O)n(C3CC3)c(=O)c3c(Nc4ccc(I)cc4F)n(C)c(=O)c(C)c32)c1 [Trametinib] (partner 0.02 µM), for which the relative viability worked out at 0.112.

In turn, `CCCCCCCCCCCC1=C(O)C(=O)C=C(O)C1=O` [Embelin] + CS(=O)(=O)N1CCN(Cc2cc3nc(-c4cccc5[nH]ncc45)nc(N4CCOCC4)c3s2)CC1 [Pictilisib] (partner 1 µM) came in with a relative viability of 0.48.

The compound `CCCCCCCCCCCC1=C(O)C(=O)C=C(O)C1=O` [Embelin] + NC(=O)Nc1cc(-c2cccc(F)c2)sc1C(=O)N[C@H]1CCCNC1 [AZD7762] (partner 0.2 µM) registered a relative viability of 0.378.

Take `CCCCCCCCCCCC1=C(O)C(=O)C=C(O)C1=O` [Embelin] + Cc1nc(NC(=O)N2CCC[C@H]2C(N)=O)sc1-c1ccnc(C(C)(C)C(F)(F)F)c1 [Alpelisib] (partner 2 µM): the relative viability came out at 0.517.

The test system of the next assay is NCI-H2170. Described as above. To be noted: first compound 0.08 µM. The essentials: as §1
In turn, `CCCCCCCCCCCC1=C(O)C(=O)C=C(O)C1=O` [Embelin] + COc1cc2c(Oc3ccc(NC(=O)C4(C(=O)Nc5ccc(F)cc5)CC4)cc3F)ccnc2cc1OCCCN1CCOCC1 [Foretinib] (partner 0.25 µM) displayed a relative viability of 0.539.

`CCCCCCCCCCCC1=C(O)C(=O)C=C(O)C1=O` [Embelin] + CC(=O)Nc1cccc(-n2c(=O)n(C3CC3)c(=O)c3c(Nc4ccc(I)cc4F)n(C)c(=O)c(C)c32)c1 [Trametinib] (partner 0.02 µM) returned a relative viability of 0.946.

`CCCCCCCCCCCC1=C(O)C(=O)C=C(O)C1=O` [Embelin] + CS(=O)(=O)N1CCN(Cc2cc3nc(-c4cccc5[nH]ncc45)nc(N4CCOCC4)c3s2)CC1 [Pictilisib] (partner 1 µM) had a relative viability of 0.307.

The compound `CCCCCCCCCCCC1=C(O)C(=O)C=C(O)C1=O` [Embelin] + NC(=O)Nc1cc(-c2cccc(F)c2)sc1C(=O)N[C@H]1CCCNC1 [AZD7762] (partner 0.2 µM) returned a relative viability of 0.906.

In turn, `CCCCCCCCCCCC1=C(O)C(=O)C=C(O)C1=O` [Embelin] + Cc1nc(NC(=O)N2CCC[C@H]2C(N)=O)sc1-c1ccnc(C(C)(C)C(F)(F)F)c1 [Alpelisib] (partner 2 µM) showed a relative viability of 0.856.

Staying with this assay, now noted: first compound 0.8 µM.
The compound `CCCCCCCCCCCC1=C(O)C(=O)C=C(O)C1=O` [Embelin] + COc1cc2c(Oc3ccc(NC(=O)C4(C(=O)Nc5ccc(F)cc5)CC4)cc3F)ccnc2cc1OCCCN1CCOCC1 [Foretinib] (partner 0.25 µM) came in with a relative viability of 1.08.

In turn, `CCCCCCCCCCCC1=C(O)C(=O)C=C(O)C1=O` [Embelin] + CC(=O)Nc1cccc(-n2c(=O)n(C3CC3)c(=O)c3c(Nc4ccc(I)cc4F)n(C)c(=O)c(C)c32)c1 [Trametinib] (partner 0.02 µM) returned a relative viability of 0.877.

`CCCCCCCCCCCC1=C(O)C(=O)C=C(O)C1=O` [Embelin] + CS(=O)(=O)N1CCN(Cc2cc3nc(-c4cccc5[nH]ncc45)nc(N4CCOCC4)c3s2)CC1 [Pictilisib] (partner 1 µM) registered a relative viability of 0.325.

Consider `CCCCCCCCCCCC1=C(O)C(=O)C=C(O)C1=O` [Embelin] + NC(=O)Nc1cc(-c2cccc(F)c2)sc1C(=O)N[C@H]1CCCNC1 [AZD7762] (partner 0.2 µM), for which the relative viability stood at 0.958.

As for `CCCCCCCCCCCC1=C(O)C(=O)C=C(O)C1=O` [Embelin] + Cc1nc(NC(=O)N2CCC[C@H]2C(N)=O)sc1-c1ccnc(C(C)(C)C(F)(F)F)c1 [Alpelisib] (partner 2 µM), the relative viability stood at 0.853.

Staying with this assay, now noted: first compound 2.53 µM.
Compound `CCCCCCCCCCCC1=C(O)C(=O)C=C(O)C1=O` [Embelin] + COc1cc2c(Oc3ccc(NC(=O)C4(C(=O)Nc5ccc(F)cc5)CC4)cc3F)ccnc2cc1OCCCN1CCOCC1 [Foretinib] (partner 0.25 µM) showed a relative viability of 1.06.
